This data set can be described thus: Pharmacokinetic crossover trial: 2 mg sublingual tablet vs 4 mg commercial oral tizanidine (Zanaflex), plasma tizanidine by HPLC. It counts as in vivo. Particulars: human. Here is the method:
Two groups were randomized and there was a one week washout period between administrations. The volunteers were in the fasted state when the drugs were administered. The sublingual tablets were placed under the tongue for 5 minutes and tablet remnants, if any, were swallowed. The oral formulation was administered with a glass of water. Blood samples were taken at 0, 0.5, 1.0, 1.5, 2.0, 2.5, 3.0, 4.0, 5.0, 6.0 and 7.0 hours after administration. […] The samples were blinded from the analysts.

Some results are limits rather than exact numbers.

The compound `Clc1ccc2nsnc2c1NC1=NCCN1` [Tizanidine, 5-Chloro-N-(4,5-dihydro-1H-imidazol-2-yl)-2,1,3-benzothiadiazol-4-amine] came in with a concentration at 0 h (other: sublingual, 2 mg, Plasma Tizanidine Levels, sublingual delivery of 2 mg tizanidine (sublingual tablet), fasted, 0 h after dosing, one column per test subject) of under 98.4 ng/g and a concentration at 0 h (po, 4 mg) of under 98.4 ng/g.

Values taken from patent publication US20040122065A1 (priority 2002, published 2004).
